Experimental data taken from US9969732B2, “Tetrahydroisoquinoline estrogen receptor modulators and uses thereof” (Genentech, Inc., priority 2016, dated 2018).

Biological target: T1, ER-alpha (WT) (Homo sapiens, UniProt P03372)
T1 construct: endogenous in cells; host or cells: MCF7 breast cancer cells
T1 sequence (P03372 1-595): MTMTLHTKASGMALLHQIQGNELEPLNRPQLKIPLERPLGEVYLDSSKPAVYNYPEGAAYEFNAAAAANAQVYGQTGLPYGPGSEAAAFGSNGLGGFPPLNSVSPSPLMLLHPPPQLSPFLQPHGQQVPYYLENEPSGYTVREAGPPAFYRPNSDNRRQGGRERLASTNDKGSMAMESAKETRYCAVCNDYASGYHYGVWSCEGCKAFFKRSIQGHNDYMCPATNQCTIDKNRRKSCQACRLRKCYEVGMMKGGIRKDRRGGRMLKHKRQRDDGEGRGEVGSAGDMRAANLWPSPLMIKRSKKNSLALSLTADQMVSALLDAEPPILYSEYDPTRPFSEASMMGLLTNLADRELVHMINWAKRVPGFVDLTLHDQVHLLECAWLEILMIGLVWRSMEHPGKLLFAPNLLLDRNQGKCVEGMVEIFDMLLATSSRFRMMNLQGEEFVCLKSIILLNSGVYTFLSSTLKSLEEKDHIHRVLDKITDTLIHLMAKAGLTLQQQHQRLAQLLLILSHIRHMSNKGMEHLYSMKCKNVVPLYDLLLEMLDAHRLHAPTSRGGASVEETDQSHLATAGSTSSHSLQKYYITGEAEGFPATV
Experiment: Breast Cancer Cell ERa High Content Fluorescence Imaging Degradation Assay (MCF7 HCS)
Assay type: cell-based
Settings: MCF7 breast cancer cells, 4 hours incubation; for EC50: inflexion point of curve; for ERalpha (WT) MCF7 HCS (S inf): plateau of the maximal effect, DMSO and Fulvestrant define 0% and 100% changes in ESR1
Protocol: MCF7 breast cancer cells were seeded on day 1 at a density of 10,000 cells per well in 384 well poly-lysine coated tissue culture plate (Greiner #T-3101-4), in 50 μL/well RPMI (phenol red free), 10% FBS (Charcoal stripped), containing L-glutamine. […] Compounds and controls were dispensed using a Labcyte Echo acoustic dispenser to dispense compounds with a predefined serial dilution (1.8×, 10 point, in duplicate) and appropriate backfill and control compounds (final total volume transferred was 417.5 nL and compound dispense volume ranges from 2.5 nL to 417.5 nL; 0.84% DMSO (v/v) final), ultimately producing a concentration range from 0.05 nM to 835 nM. Cell plates were incubated at 37° C., for 4 hours. Fixation and permeabilization were carried out using a Biotek EL406 plate washer and dispenser as follows. Cells were fixed by addition of 15 μL of 16% paraformaldehyde (Electron Microscopy Sciences #15710-S) directly to the 50 μL cell culture medium in each well using the peristaltic pump 5 μL cassette on a Biotek EL406 (final concentration of formaldehyde was 3.7% w/v). Samples were incubated 30 minutes. Well contents was aspirated and 50 μL/well of Phosphate Buffered Saline (PBS) containing 0.5% w/v bovine serum albumen, 0.5% v/v Triton X-100 (Antibody Dilution Buffer) was added to each well. Samples were incubated for 30 minutes. Well contents were aspirated and washed 3 times with 100 μL/well of PBS. Immunofluorescence staining of estrogen receptor alpha (ESR1) was carried out using a Biotek EL406 plate washer and dispenser as follows. The well supernatant was aspirated from the wells and 25 μL/well of anti-ESR1 mAb (F10) (Santa Cruz sc-8002) diluted 1:1000 in Antibody Dilution Buffer was dispensed. Samples were incubated for 2 hours at room temperature. Samples were washed 4 times with 100 μL/well of PBS. 25 μL (microliters)/well of secondary antibody solution (Alexafluor® 488 conjugate anti-mouse IgG (LifeTechnologies #A21202) diluted 1:1000 and Hoechst 33342 1 μg/mL diluted in Antibody Dilution Buffer) were dispensed into each well. Samples were incubated for 2 hours at room temperature. Samples were washed 3 times with 100 μL/well of PBS using a Biotek EL406. Quantitative fluorescence imaging of ESR1 was carried out using a Cellomics Arrayscan V® (Thermo). Fluorescence images of the samples (Channel 1: XF53 Hoechst (DNA stain); Channel 2: XF53 FITC (ESR1 stain)) were acquired using a Cellomics VTI Arrayscan using the Bioapplication “Compartmental Analysis” using the auto-exposure (based on DMSO control wells) setting “peak target percentile” set to 25% target saturation for both channels. Channel 1 (DNA stain) was used to define the nuclear region (Circ). Measurements of “Mean_CircAvgIntCh2”, which is the Alexafluor 488 fluorescence intensity (ESR1) within the nuclear region, was measured on a per cell basis and averaged over all the measured cells. Data analysis was carried out using Genedata Screener Software, with DMSO and 5 nM Fulvestrant treated samples being used to define the 0% and 100% changes in ESR1. The “Robust Fit” method was used to define the inflexion point of curve (EC50) and the plateau of the maximal effect (Sinf).

Structure (SMILES)	EC50 [nM]	ERalpha (WT) MCF7 HCS (S inf) [%]
C[C@H]1CN(S(C)(=O)=O)[C@@H](c2ccc(OCCN3CC(CF)C3)cc2)c2ccc(O)cc21 (single isomer, unassigned) [Example 118]	≥ 100	–
C[C@@H]1CN(S(C)(=O)=O)[C@@H](c2ccc(OCCN3CC(CF)C3)cc2)c2ccc(O)cc21 (single isomer, unassigned) [Example 119]	≥ 100	–
C[C@@H]1Cc2c(ccc3[nH]ncc23)[C@@H](c2c(F)cc(OCCN3CC(CF)C3)cc2F)N1CC(C)(C)F (single isomer, unassigned) [Example 123]	0.06	−98.8
C[C@H]1Cc2c(ccc3[nH]ncc23)[C@H](c2c(F)cc(OCCN3CC(CF)C3)cc2F)N1CC(C)(C)F (single isomer, unassigned) [Example 124]	3.23	−90
Oc1ccc2c(c1)CCN(CC(F)(F)F)C2c1c(F)cc(OC2CN(CCCF)C2)cc1F (single isomer, unassigned) [Example 143]	22	−100
Oc1ccc2c(c1)CCN(CC(F)(F)F)C2c1c(F)cc(OC2CN(CCCF)C2)cc1F (single isomer, unassigned) [Example 144]	0.041	−102
C[C@H]1Cc2ccccc2[C@H](c2ccc(OCCN3CC(CF)C3)cc2)N1CC(F)(F)F (single isomer, unassigned) [Example 155]	31	−70
C[C@@H]1Cc2ccccc2[C@@H](c2ccc(OCCN3CC(CF)C3)cc2)N1CC(F)(F)F (single isomer, unassigned) [Example 156]	0.85	−97
C[C@@H]1Cc2cc(CO)ccc2[C@@H](c2ccc(OCCN3CC(CF)C3)cc2)N1CC(F)(F)F (single isomer, unassigned) [Example 159]	0.043	−99
C[C@H]1Cc2cc(C(=O)O)ccc2[C@H](c2ccc(OCCN3CC(CF)C3)cc2)N1CC(F)(F)F (single isomer, unassigned) [Example 163]	11	−92
C[C@@H]1Cc2cc(C(=O)O)ccc2[C@@H](c2ccc(OCCN3CC(CF)C3)cc2)N1CC(F)(F)F (single isomer, unassigned) [Example 164]	1.3	−100
C[C@@H]1Cc2cccc(O)c2[C@@H](c2ccc(OCCN3CC(CF)C3)cc2)N1CC(F)(F)CO (single isomer, unassigned) [Example 167]	22	−82
C[C@H]1Cc2cccc(O)c2[C@H](c2ccc(OCCN3CC(CF)C3)cc2)N1CC(F)(F)CO (single isomer, unassigned) [Example 168]	510	–
C[C@H]1Cc2cc(CO)ccc2[C@H](c2ccc(NC3CN(CCCF)C3)cc2)N1CC(F)(F)F (single isomer, unassigned) [Example 169]	37	−60
C[C@@H]1Cc2cc(CO)ccc2[C@@H](c2ccc(NC3CN(CCCF)C3)cc2)N1CC(F)(F)F (single isomer, unassigned) [Example 170]	0.088	−100
C[C@H]1Cc2cc(CO)ccc2[C@H](c2ccc(OCCN3CC(CF)C3)cc2)N1CC(F)(F)CO (single isomer, unassigned) [Example 171]	23	−63

Second part, the molecule after the results:

EC50 [nM]	ERalpha (WT) MCF7 HCS (S inf) [%]	Structure (SMILES)
100	–	CC(C)(F)C(=O)N1CCc2cc(O)ccc2[C@@H]1c1ccc(OCCN2CC(CF)C2)cc1 (single isomer, unassigned) [Example 103]
0.741	−90	CC(C)(F)C(=O)N1CCc2cc(O)ccc2[C@H]1c1ccc(OCCN2CC(CF)C2)cc1 (single isomer, unassigned) [Example 104]
3.22	−97	CC(C)(F)CN1CCc2cc(O)ccc2[C@]1(C)c1ccc(OCCN2CC(CF)C2)cc1 (single isomer, unassigned) [Example 107]
0.0344	−98	CC(C)(F)CN1CCc2cc(O)ccc2[C@@]1(C)c1ccc(OCCN2CC(CF)C2)cc1 (single isomer, unassigned) [Example 108]
≥ 100	–	CS(=O)(=O)N1CCc2cc(O)ccc2[C@@H]1c1ccc(OCCN2CC(CF)C2)cc1 (single isomer, unassigned) [Example 109]
8.28	−85	CS(=O)(=O)N1CCc2cc(O)ccc2[C@H]1c1ccc(OCCN2CC(CF)C2)cc1 (single isomer, unassigned) [Example 110]
22	−85	CC(C)(F)CN1CCc2cc(O)ccc2[C@@]1(c1ccc(OCCN2CC(CF)C2)cc1)C(F)F (single isomer, unassigned) [Example 127]
0.075	−95	CC(C)(F)CN1CCc2cc(O)ccc2[C@]1(c1ccc(OCCN2CC(CF)C2)cc1)C(F)F (single isomer, unassigned) [Example 128]
1.4	−96	C[C@H]1Cc2cc(O)ccc2[C@H](c2ccc(OCCN3CC(CF)C3)cc2)N1CC(F)(F)F (single isomer, unassigned) [Example 131]
0.011	−97	C[C@@H]1Cc2cc(O)ccc2[C@@H](c2ccc(OCCN3CC(CF)C3)cc2)N1CC(F)(F)F (single isomer, unassigned) [Example 132]
0.101	−95.4	Oc1ccc2c(c1)CCCN(CC(F)(F)F)[C@H]2c1ccc(OCCN2CC(CF)C2)cc1 (single isomer, unassigned) [Example 139]
0.05	−96.6	Oc1ccc2c(c1)CCCN(CC(F)(F)F)[C@@H]2c1ccc(OCCN2CC(CF)C2)cc1 (single isomer, unassigned) [Example 140]
100	−100	OCc1ccc2c(c1)CCN(CC(F)(F)F)C2c1ccc(OCCN2CC(CF)C2)cc1 (single isomer, unassigned) [Example 149]
0.54	−99	Oc1ccc2c(c1)CCN(CC(F)(F)F)[C@H]2c1ccc(OCCN2CC(CF)C2)cc1 (single isomer, unassigned) [Example 153]
0.024	−99	Oc1ccc2c(c1)CCN(CC(F)(F)F)[C@@H]2c1ccc(OCCN2CC(CF)C2)cc1 (single isomer, unassigned) [Example 154]
0.042	−96	CC1(C)Cc2cc(O)ccc2C(c2ccc(OCCN3CC(CF)C3)cc2)N1CC(F)(F)F (single isomer, unassigned) [Example 158]
19	−88	C[C@H]1Cc2cc(CO)ccc2[C@H](c2ccc(OCCN3CC(CF)C3)cc2)N1CC(F)(F)F (single isomer, unassigned) [Example 160]
